As usually defined, the bioavailability is dose-corrected exposure relative to a reference, in per cent. Low readings indicate little systemic uptake, high ones much systemic uptake.

Each structure is given as a SMILES string. Calls of active or inactive are those of the source. The calls are words filed in the database; no cut-off is given here.

Here are results for two compounds from ChEMBL document CHEMBL5608235, “Tricyclic Benzo[1,3]oxazinyloxazolidinones as Potent Antibacterial Agents against Drug-Resistant Pathogens” (J Med Chem, 2024).

One data set relates to Cell membrane. Put plainly: Disruption of cell membrane in methicillin resistant Staphylococcus aureus ATCC 33592 assessed as cell lysis at MIC incubated for 6 hrs by Scanning electron microscopic analysis. Format: cell membranes.
Data set [1] is described as follows: Oral bioavailability in BALB/c mouse at 10 mg/kg administration measured upto 24 hrs by LC-MS/MS analysis. The data set is classed as ADME, organism-based. Conditions: BALB/c, in vivo.

For `CCCCCCCCCC(=O)N[C@@H](Cc1c[nH]c2ccccc12)C(=O)N[C@H](CC(N)=O)C(=O)N[C@@H](CC(=O)O)C(=O)N[C@@H]1C(=O)NCC(=O)N[C@@H](CCCN)C(=O)N[C@@H](CC(=O)O)C(=O)N[C@H](C)C(=O)N[C@@H](CC(=O)O)C(=O)NCC(=O)N[C@H](CO)C(=O)N[C@@H]([C@H](C)CC(=O)O)C(=O)N[C@@H](CC(=O)c2ccccc2N)C(=O)O[C@@H]1C`, the outcome in the data set with Cell membrane was Active.

In data set [1], `CC(=O)Nc1ccc(O)cc1` [ACETAMINOPHEN] showed a bioavailability of 27.6%.
